According to ChEMBL document CHEMBL4627408, “Metabolic Activation of Pirfenidone Mediated by Cytochrome P450s and Sulfotransferases” (J Med Chem, 2020):
Blank lines part the entries; values can stand above or below the compound they belong to.

Columns and labels:
[1] = Retention time in rat liver microsomes treated with 50 uM pirfenidone incubated for 45 mins in presence of NADPH by LC-MS/MS analysis; format: ADME, Microsome; details: 0.75 h
[2] = Retention time in rat liver microsomes treated with 50 uM pirfenidone incubated for 45 mins in presence of NADPH and NAC by LC-MS/MS analysis; format: ADME, Microsome; details: 0.75 h
[3] = biological target: T1, Cytochrome P450 3A5 (Homo sapiens, UniProt P20815); assay: Drug level assessed as human recombinant CYP3A5-mediated compound formation using 50 uM pirfenidone incubated for 45 mins in presence of NADPH and glutathione by LC-MS/MS analysis; format: ADME; details: recombinant enzyme, 0.75 h
T1 sequence (P20815 whole entry): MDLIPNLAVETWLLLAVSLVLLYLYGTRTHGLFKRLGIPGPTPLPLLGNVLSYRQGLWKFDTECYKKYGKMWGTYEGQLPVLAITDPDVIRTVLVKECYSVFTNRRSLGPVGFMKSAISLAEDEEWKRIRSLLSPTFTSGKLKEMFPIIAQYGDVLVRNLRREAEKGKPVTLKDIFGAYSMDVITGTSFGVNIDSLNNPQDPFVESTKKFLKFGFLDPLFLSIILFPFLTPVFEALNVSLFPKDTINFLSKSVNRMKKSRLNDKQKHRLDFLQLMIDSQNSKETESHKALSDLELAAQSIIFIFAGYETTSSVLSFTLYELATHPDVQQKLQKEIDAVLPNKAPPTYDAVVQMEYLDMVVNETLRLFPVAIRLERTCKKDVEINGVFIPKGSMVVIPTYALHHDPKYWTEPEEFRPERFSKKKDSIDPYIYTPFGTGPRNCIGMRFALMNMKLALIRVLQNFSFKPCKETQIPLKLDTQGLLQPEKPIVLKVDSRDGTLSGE

[4] = biological target: T2, Cytochrome P450 3A4 (Homo sapiens, UniProt P08684); assay: Drug level assessed as human recombinant CYP3A4-mediated compound formation using 50 uM pirfenidone incubated for 45 mins in presence of NADPH and glutathione by LC-MS/MS analysis; format: ADME; details: recombinant enzyme, 0.75 h
T2 sequence (P08684 whole entry): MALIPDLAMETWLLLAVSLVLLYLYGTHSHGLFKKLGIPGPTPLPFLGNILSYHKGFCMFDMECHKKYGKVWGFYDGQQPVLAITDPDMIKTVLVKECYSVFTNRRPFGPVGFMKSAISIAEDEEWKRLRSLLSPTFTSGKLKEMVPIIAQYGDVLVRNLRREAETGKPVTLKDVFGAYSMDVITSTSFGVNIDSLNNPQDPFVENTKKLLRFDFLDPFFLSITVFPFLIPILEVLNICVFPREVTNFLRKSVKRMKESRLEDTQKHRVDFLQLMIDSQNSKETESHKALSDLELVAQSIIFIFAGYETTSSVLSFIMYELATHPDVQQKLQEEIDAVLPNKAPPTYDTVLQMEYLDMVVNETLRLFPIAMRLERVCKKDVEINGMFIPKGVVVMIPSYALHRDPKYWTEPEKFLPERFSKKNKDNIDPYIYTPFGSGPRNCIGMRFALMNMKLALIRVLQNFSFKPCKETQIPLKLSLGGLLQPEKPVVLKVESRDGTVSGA

[5] = biological target: T2, Cytochrome P450 3A4; assay: Drug metabolism assessed as human recombinant CYP3A4-mediated 5-methylene-1-phenyl-pyridin-1-ium-2-one formation at 50 uM incubated for 45 mins in presence of NADPH and glutathione by LC-MS/MS analysis; format: ADME; details: recombinant enzyme, 0.75 h
[6] = Drug metabolism in rat liver assessed as formation of GSH-conjugate at 100 mg/kg, ip measured up to 3 hrs by LC-MS/MS analysis; format: ADME, organism-based; details: in vivo
[7] = system: Hepatocyte; assay: Toxicity in rat primary hepatocytes at 800 uM; format: cell-based
[8] = Drug metabolism in rat liver assessed as formation of GSH-conjugate by measuring hepatic protein adduction formation at 50 to 200 mg/kg, ip measured after 1 hr by LC-MS/MS analysis; format: ADME, organism-based; details: in vivo
[9] = biological target: T3, Cytochrome P450 2A6 (Homo sapiens, UniProt P11509); assay: Drug metabolism assessed as human recombinant CYP2A6-mediated compound activation using 50 uM pirfenidone incubated for 45 mins in presence of NADPH and glutathione by LC-MS/MS analysis; format: ADME; details: recombinant enzyme, 0.75 h
T3 sequence (P11509 whole entry): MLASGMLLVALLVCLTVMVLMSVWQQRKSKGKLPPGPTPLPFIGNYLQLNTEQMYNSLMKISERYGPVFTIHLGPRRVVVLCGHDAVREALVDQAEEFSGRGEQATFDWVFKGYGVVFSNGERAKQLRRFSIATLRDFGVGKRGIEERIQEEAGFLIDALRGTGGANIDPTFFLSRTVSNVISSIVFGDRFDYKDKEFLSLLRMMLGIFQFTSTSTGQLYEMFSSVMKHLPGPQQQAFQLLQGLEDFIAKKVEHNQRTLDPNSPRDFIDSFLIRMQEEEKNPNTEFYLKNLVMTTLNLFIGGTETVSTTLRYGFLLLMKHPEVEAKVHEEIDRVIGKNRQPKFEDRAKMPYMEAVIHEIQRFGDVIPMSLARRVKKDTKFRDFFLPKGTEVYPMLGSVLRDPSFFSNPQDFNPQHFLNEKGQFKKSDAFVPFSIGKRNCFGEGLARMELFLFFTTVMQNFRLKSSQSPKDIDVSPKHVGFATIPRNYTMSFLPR

[10] = Drug metabolism in rat liver microsomes assessed as Retention time of GSH metabolite at 50 uM incubated for 45 mins in presence of NADPH and glutathione by LC-MS/MS analysis; format: ADME, Microsome; details: 0.75 h
[11] = Drug metabolism in rat liver microsomes assessed as 5-Hydroxymethyl-1-phenyl-1H-pyridine-2-one formation at 50 uM incubated for 45 mins in presence of NADPH and glutathione by LC-MS/MS analysis; format: ADME, Microsome; details: 0.75 h
[12] = Drug metabolism in rat liver assessed as formation of GSH-conjugate by measuring retention time of cysteine adduct in proteolytic protein samples at 10 to 400 mg/kg, ip measured up to 3 hrs by LC-MS/MS analysis; format: ADME, organism-based; details: in vivo
[13] = biological target: T1, Cytochrome P450 3A5; assay: Drug metabolism assessed as human recombinant CYP3A5-mediated 5-methylene-1-phenyl-pyridin-1-ium-2-one formation at 50 uM incubated for 45 mins in presence of NADPH and glutathione by LC-MS/MS analysis; format: ADME; details: recombinant enzyme, 0.75 h
[14] = Drug metabolism in rat bile assessed as formation of (2R)-2-acetamido-3-[(6-oxo-1-phenyl-3-pyridyl)methylsulfanyl]propanoic acid at 100 mg/kg, ip measured after 2 hrs by LC-MS/MS analysis; format: ADME, organism-based; details: in vivo
[15] = Toxicity in rat assessed as induction of liver injury at 150 to 200 mg/kg, ip; format: organism-based; details: in vivo

Retention_time [1]: 7.25 min
SMILES: O=c1ccc(CO)cn1-c1ccccc1

Retention_time [2]: 7.26 min
SMILES: CC(=O)N[C@@H](CSCc1ccc(=O)n(-c2ccccc2)c1)C(=O)O

Drug uptake [3]: Metabolite_Detected | Drug uptake [4]: Metabolite_Detected
SMILES: C=C1C=CC(=O)[N+](c2ccccc2)=C1

Drug metabolism [5]: Metabolite_Detected | Drug metabolism [6]: Dose-dependent effect | Drug metabolism [8]: Dose-dependent effect | Drug metabolism [9]: Metabolite_Detected | Retention_time [10]: 6.6 min | Drug metabolism [11]: Metabolite_Detected | Retention_time [12]: 6.24 min | Drug metabolism [13]: Metabolite_Detected | Drug metabolism [14]: Metabolite_Detected
SMILES: Cc1ccc(=O)n(-c2ccccc2)c1 [PIRFENIDONE]
Activity [7]: Non-Toxic | Activity [15]: Non-Toxic
